From patent US20260242391A1 (priority 2023, published 2026)

Legend:
[1] = system: MDS-L cells; assay: CFU assays with MDS-L cells; format: cell-based
[2] = system: MDS-L cells
[3] = system: MDS-L cells; assay: Loss of CD71 in MDS-L cells; format: cell-based
[4] = system: MDS-L cells; conditions: human
Description: MDS-L differentiation assay.
(§1) MDS-L were cultured in RPMI (17-105-CV, Corning) without phenol red and supplemented with 2 mM glutamine and 10% FBS. Cells first expanded in IL-3 until 70% confluence then pre-conditioned for 14 days with IL-3 (200-03, PeproTech), GCSF (300-23, PeproTech), and EPO (287-TC, R&D Systems) to promote erythroid and myeloid differentiation. A density of 10,000 cells per well were used in phenotypic assays. MDSL cells were spun and treatment media was replaced with media containing APC Anti-CD235a (GlyA) (551336, BD Biosciences) (1.25 μL per 50 L test) and incubated for 1 hour at 4° C. Cells were washed then counter stained with SYTOX-Green 1 M per 100 L prior to flow cytometry analysis. Dose response and pharmacological assays were analyzed using a ZE5 Cell Analyzer (BioRad) equipped with Everest software. Single, live, cells were analyzed for GlyA expression using FlowJo v10.7.2 software.

[5] = system: MDS-L cells; assay: cells; conditions: read-out: MDS-L GlyA induction EC50
Description: MDS-L differentiation assay.
as §1

[6] = system: MDS-L cells; assay: Labile heme levels of MDS-L cells; format: cell-based; conditions: over relevant time periods (FIG. 4B)

SMILES: CCO[C@H]1O[C@@H]2O[C@@]3(C)CC[C@H]4[C@H](C)CC[C@@H]([C@H]1C)[C@@]24OO3 [Arteether, arteether]
- Terminal differentiation of MDS-L cells to CFU-Es while decreasing BFU-E, CFU-GM and CFU-GEMM type colonies [1]: efficaciously induced terminal differentiation
- Induction in apoptosis [2]: no significant induction
- Loss of CD71 [3]: efficaciously promoted the loss of CD71
- Maximal MDS-L GlyA fold induction [4]: 3.82 fold
- EC50 [5]: 580 nM

SMILES: C[C@H]1[C@H](N2CCS(=O)(=O)CC2)O[C@@H]2O[C@@]3(C)CC[C@H]4[C@H](C)CC[C@@H]1[C@@]24OO3 [artemisone]
- Terminal differentiation of MDS-L cells to CFU-Es while decreasing BFU-E, CFU-GM and CFU-GEMM type colonies [1]: efficaciously induced terminal differentiation
- Levels of labile heme in MDS-L cells [6]: efficiently reduced
- Induction in apoptosis [2]: no significant induction
- Loss of CD71 [3]: efficaciously promoted the loss of CD71
- Maximal MDS-L GlyA fold induction [4]: 6.84 fold
- EC50 [5]: 150 nM
